Experiments:
Type in all cases: in vivo
ducksalad [1] = test: Test Example 1: herbicidal effects in preemergence treatment under submerged conditions; settings: dose 2.52 g/a
Method in brief: (§1)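 Score 0–5 by mortality (5: ≥90%; 0: <5%), read 3 weeks post-application. Paddy-type cups: alluvial soil under 4 cm water, weeds seeded plus transplanted 2.5-leaf rice; diluted EC dosed onto water surface same day as sowing, g/a basis; greenhouse 25 to 30° C.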

bulrush [2] = test: as above; settings: dose 2.52 g/a
Method in brief: as §1

barnyardgrass [3] = test: as above; settings: dose 2.52 g/a
Method in brief: as §1

common chickweed [4] = test: Test Example 4: herbicidal effect in foliage treatment; settings: dose 3.2 g/a, three weeks after application
Method in brief: (§2)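 Post-emergence foliar spray of water-diluted emulsifiable concentrate at predetermined doses (g per are), applied to plants 14 days after sowing in sterile diluvial soil (greenhouse, 25 to 30° C). Visual scale rating of effect taken 3 weeks later.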

giant foxtail [5] = test: as above; settings: dose 3.2 g/a, three weeks after application
Method in brief: as §2

large crabgrass [6] = test: as above; settings: dose 3.2 g/a, three weeks after application
Method in brief: as §2

beadstraw = test: as above; settings: dose 3.2 g/a, three weeks after application
Method in brief: as §2

velvetleaf = test: as above; settings: dose 3.2 g/a, three weeks after application
Method in brief: as §2

water foxtail [7] = test: as above; settings: dose 3.2 g/a, three weeks after application
Method in brief: as §2

common ragweed [8] = test: as above; settings: dose 3.2 g/a, three weeks after application
Method in brief: as §2

common lambsquater [9] = test: as above; settings: dose 3.2 g/a, three weeks after application
Method in brief: as §2

posumbu knotweed [10] = test: as above; settings: dose 3.2 g/a, three weeks after application
Method in brief: as §2

wild oat [11] = test: as above; settings: dose 3.2 g/a, three weeks after application
Method in brief: as §2

barnyardgrass [12] = test: as above; settings: dose 3.2 g/a, three weeks after application
Method in brief: as §2

Italian ryegrass [13] = test: as above; settings: dose 3.2 g/a, three weeks after application
Method in brief: as §2

redroot pigweed [14] = test: as above; settings: dose 3.2 g/a, three weeks after application
Method in brief: as §2

transplanted rice = test: Test Example 1: preemergence treatment under submerged conditions, effect on crop; settings: dose 2.52 g/a
Method in brief: as §1

common chickweed [15] = test: Test Example 3: herbicidal effects in soil treatment; settings: dose 3.2 g/a
Method in brief: (§3)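 Seeds were sown in sterilized diluvial soil and covered with about 1.5 cm of soil. Compounds, formulated as emulsifiable concentrates and diluted with water, were sprayed evenly over the soil surface at set doses in g/a. Herbicidal effect was scored on a rating scale three weeks later.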

giant foxtail [16] = test: as above; settings: dose 3.2 g/a
Method in brief: as §3

large crabgrass [17] = test: as above; settings: dose 3.2 g/a
Method in brief: as §3

water foxtail [18] = test: as above; settings: dose 3.2 g/a
Method in brief: as §3

common ragweed [19] = test: as above; settings: dose 3.2 g/a
Method in brief: as §3

common lambsquater [20] = test: as above; settings: dose 3.2 g/a
Method in brief: as §3

posumbu knotweed [21] = test: as above; settings: dose 3.2 g/a
Method in brief: as §3

wild oat [22] = test: as above; settings: dose 3.2 g/a
Method in brief: as §3

barnyardgrass [23] = test: as above; settings: dose 3.2 g/a
Method in brief: as §3

Italian ryegrass [24] = test: as above; settings: dose 3.2 g/a
Method in brief: as §3

redroot pigweed [25] = test: as above; settings: dose 3.2 g/a
Method in brief: as §3

ducksalad [26] = test: Test Example 2: herbicidal effects during the vegetation period under submerged conditions; settings: treatment during the vegetation period under submerged conditions; dose 2.52 g/a
Method in brief: (§4)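 Barnyardgrass, bulrush and ducksalad were co-sown in alluvial soil flooded to 4 cm and grown in a greenhouse at 25 to 30° C. At the 1- or 2-leaf stage, water-diluted emulsifiable concentrates went onto the water surface at set doses (g/a). Herbicidal effect was scored three weeks later on a graded scale.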

bulrush [27] = test: as above; settings: treatment during the vegetation period under submerged conditions; dose 2.52 g/a
Method in brief: as §4

barnyardgrass [28] = test: as above; settings: treatment during the vegetation period under submerged conditions; dose 2.52 g/a
Method in brief: as §4

| SMILES | C: ducksalad, herbicidal effect (evaluation scale 0-5) (ducksalad [1]) | B: bulrush, herbicidal effect (evaluation scale 0-5) (bulrush [2]) | A: barnyardgrass, herbicidal effect (evaluation scale 0-5) (barnyardgrass [3]) | N: common chickweed, herbicidal effect (common chickweed [4]) | E: giant foxtail, herbicidal effect (giant foxtail [5]) | D: large crabgrass, herbicidal effect (large crabgrass [6]) | O: beadstraw, herbicidal effect (beadstraw) | I: velvetleaf, herbicidal effect (velvetleaf) | G: water foxtail, herbicidal effect (water foxtail [7]) | J: common ragweed, herbicidal effect (common ragweed [8]) | L: common lambsquater, herbicidal effect (common lambsquater [9]) | M: posumbu knotweed, herbicidal effect (posumbu knotweed [10]) | F: wild oat, herbicidal effect (wild oat [11]) | A: barnyardgrass, herbicidal effect (barnyardgrass [12]) | H: Italian ryegrass, herbicidal effect (Italian ryegrass [13]) | K: redroot pigweed, herbicidal effect (redroot pigweed [14]) | a: transplanted rice, effect on crop (evaluation scale 0-5) (transplanted rice) | N: common chickweed, herbicidal effect (evaluation scale 0-5) (common chickweed [15]) | E: giant foxtail, herbicidal effect (evaluation scale 0-5) (giant foxtail [16]) | D: large crabgrass, herbicidal effect (evaluation scale 0-5) (large crabgrass [17]) | other results |
| --- | --- | --- | --- | --- | --- | --- | --- | --- | --- | --- | --- | --- | --- | --- | --- | --- | --- | --- | --- | --- | --- |
| O=C1CC(c2ccccc2)OCN1Cc1ccccc1N(C(=O)OCCCl)S(=O)(=O)C(F)(F)F (centres unmarked) [II-12] | 5 (mortality of 90% or above (nearly complete death)) | 5 (mortality of 90% or above (nearly complete death)) | 5 (mortality of 90% or above (nearly complete death)) | 3 (mortality of at least 40% and less than 70%) | 3 (mortality of at least 40% and less than 70%) | 2 (mortality of at least 20% and less than 40%) | 4 (mortality of at least 70% and less than 90%) | 3 (mortality of at least 40% and less than 70%) | 4 (mortality of at least 70% and less than 90%) | 4 (mortality of at least 70% and less than 90%) | 0 (mortality of less than 5% (almost ineffective)) | 1 (mortality of at least 5% and less than 20%) | 0 (mortality of less than 5% (almost ineffective)) | 5 (mortality of 90% or above (nearly complete death)) | 0 (mortality of less than 5% (almost ineffective)) | 0 (mortality of less than 5% (almost ineffective)) | 0 (mortality of less than 5% (almost ineffective)) | 3 (mortality of at least 40% and less than 70%) | 5 (mortality of 90% or above (nearly complete death)) | 4 (mortality of at least 70% and less than 90%) | G: water foxtail, herbicidal effect (evaluation scale 0-5) (water foxtail [18]): 5 (mortality of 90% or above (nearly complete death)); J: common ragweed, herbicidal effect (evaluation scale 0-5) (common ragweed [19]): 0 (mortality of less than 5% (almost ineffective)); L: common lambsquater, herbicidal effect (evaluation scale 0-5) (common lambsquater [20]): 0 (mortality of less than 5% (almost ineffective)); M: posumbu knotweed, herbicidal effect (evaluation scale 0-5) (posumbu knotweed [21]): 0 (mortality of less than 5% (almost ineffective)); F: wild oat, herbicidal effect (evaluation scale 0-5) (wild oat [22]): 0 (mortality of less than 5% (almost ineffective)); A: barnyardgrass, herbicidal effect (evaluation scale 0-5) (barnyardgrass [23]): 4 (mortality of at least 70% and less than 90%); H: Italian ryegrass, herbicidal effect (evaluation scale 0-5) (Italian ryegrass [24]): 4 (mortality of at least 70% and less than 90%); K: redroot pigweed, herbicidal effect (evaluation scale 0-5) (redroot pigweed [25]): 0 (mortality of less than 5% (almost ineffective)); C: ducksalad, herbicidal effect (evaluation scale 0-5) (ducksalad [26]): 5 (mortality of 90% or above (nearly complete death)); B: bulrush, herbicidal effect (evaluation scale 0-5) (bulrush [27]): 5 (mortality of 90% or above (nearly complete death)); A: barnyardgrass, herbicidal effect (evaluation scale 0-5) (barnyardgrass [28]): 4 (mortality of at least 70% and less than 90%) |
| CC(C)(C)COC(=O)N(c1ccccc1CN1COC(C)(C)CC1=O)S(=O)(=O)C(F)(F)F [II-27] | 5 (mortality of 90% or above (nearly complete death)) | 5 (mortality of 90% or above (nearly complete death)) | 5 (mortality of 90% or above (nearly complete death)) | 3 (mortality of at least 40% and less than 70%) | 3 (mortality of at least 40% and less than 70%) | 4 (mortality of at least 70% and less than 90%) | 4 (mortality of at least 70% and less than 90%) | 5 (mortality of 90% or above (nearly complete death)) | 3 (mortality of at least 40% and less than 70%) | 4 (mortality of at least 70% and less than 90%) | 3 (mortality of at least 40% and less than 70%) | 3 (mortality of at least 40% and less than 70%) | 0 (mortality of less than 5% (almost ineffective)) | 5 (mortality of 90% or above (nearly complete death)) | 3 (mortality of at least 40% and less than 70%) | 0 (mortality of less than 5% (almost ineffective)) | 0 (mortality of less than 5% (almost ineffective)) | 4 (mortality of at least 70% and less than 90%) | 4 (mortality of at least 70% and less than 90%) | 5 (mortality of 90% or above (nearly complete death)) | G: water foxtail, herbicidal effect (evaluation scale 0-5) (water foxtail [18]): 5 (mortality of 90% or above (nearly complete death)); J: common ragweed, herbicidal effect (evaluation scale 0-5) (common ragweed [19]): 4 (mortality of at least 70% and less than 90%); L: common lambsquater, herbicidal effect (evaluation scale 0-5) (common lambsquater [20]): 0 (mortality of less than 5% (almost ineffective)); M: posumbu knotweed, herbicidal effect (evaluation scale 0-5) (posumbu knotweed [21]): 3 (mortality of at least 40% and less than 70%); F: wild oat, herbicidal effect (evaluation scale 0-5) (wild oat [22]): 0 (mortality of less than 5% (almost ineffective)); A: barnyardgrass, herbicidal effect (evaluation scale 0-5) (barnyardgrass [23]): 5 (mortality of 90% or above (nearly complete death)); H: Italian ryegrass, herbicidal effect (evaluation scale 0-5) (Italian ryegrass [24]): 3 (mortality of at least 40% and less than 70%); K: redroot pigweed, herbicidal effect (evaluation scale 0-5) (redroot pigweed [25]): 0 (mortality of less than 5% (almost ineffective)); C: ducksalad, herbicidal effect (evaluation scale 0-5) (ducksalad [26]): 5 (mortality of 90% or above (nearly complete death)); B: bulrush, herbicidal effect (evaluation scale 0-5) (bulrush [27]): 5 (mortality of 90% or above (nearly complete death)); A: barnyardgrass, herbicidal effect (evaluation scale 0-5) (barnyardgrass [28]): 5 (mortality of 90% or above (nearly complete death)) |

— US20120029187A1, “HALOALKYLSULFONANILIDE DERIVATIVE” (Nissan Chemical Industries, Ltd., priority 2009, published 2012)
